This note sets out measurements from ChEMBL document CHEMBL1128556, “New spiropiperidines as potent and selective non-peptide tachykinin NK2 receptor antagonists” (J Med Chem, 1995).

Usually Ki stands for the equilibrium dissociation constant of an inhibitor or competing ligand from its target. Low readings indicate tighter binding, high ones weaker binding.

In assay [1] the target is T1, Substance-K receptor (Rattus norvegicus, UniProt P16610).
T1 sequence (P16610 whole entry): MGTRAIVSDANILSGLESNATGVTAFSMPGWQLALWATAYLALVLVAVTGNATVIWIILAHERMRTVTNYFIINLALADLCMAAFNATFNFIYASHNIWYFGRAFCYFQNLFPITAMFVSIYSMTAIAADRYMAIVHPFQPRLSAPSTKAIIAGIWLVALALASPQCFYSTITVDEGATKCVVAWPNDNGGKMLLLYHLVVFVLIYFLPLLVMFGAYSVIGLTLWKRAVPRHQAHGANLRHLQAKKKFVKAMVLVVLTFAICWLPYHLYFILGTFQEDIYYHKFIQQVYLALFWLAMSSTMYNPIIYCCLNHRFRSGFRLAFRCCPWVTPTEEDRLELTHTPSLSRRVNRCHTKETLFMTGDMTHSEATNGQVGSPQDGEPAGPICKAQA
The assay can be described thus: Binding affinity against tachykinin receptor 2 from rat colon.

In another assay the target is Substance-P receptor (Cavia porcellus, UniProt P30547). The assay can be described thus: The compound was tested for binding affinity against Tachykinin receptor 1 from guinea pig trachea.
A further assay deals with T2, Neuromedin-K receptor (Cavia porcellus, UniProt P30098).
T2 sequence (P30098 whole entry): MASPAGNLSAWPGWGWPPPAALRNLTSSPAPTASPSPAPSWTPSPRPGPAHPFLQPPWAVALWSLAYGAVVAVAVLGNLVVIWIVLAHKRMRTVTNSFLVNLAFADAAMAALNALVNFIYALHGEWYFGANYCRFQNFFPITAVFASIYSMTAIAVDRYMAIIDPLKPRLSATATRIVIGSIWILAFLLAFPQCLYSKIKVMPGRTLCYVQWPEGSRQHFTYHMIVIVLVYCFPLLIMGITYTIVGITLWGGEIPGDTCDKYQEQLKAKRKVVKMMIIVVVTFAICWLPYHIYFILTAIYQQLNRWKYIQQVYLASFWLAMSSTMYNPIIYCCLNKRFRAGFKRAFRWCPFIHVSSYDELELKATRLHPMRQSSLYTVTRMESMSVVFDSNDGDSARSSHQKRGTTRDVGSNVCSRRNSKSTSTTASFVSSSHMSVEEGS
The assay can be described thus: The compound was tested for binding affinity against Tachykinin receptor 3 from guinea pig cerebral cortex. The format is tissue-based.

Assay [2] has as its target T3, Substance-K receptor (Homo sapiens, UniProt P21452).
T3 sequence (P21452 whole entry): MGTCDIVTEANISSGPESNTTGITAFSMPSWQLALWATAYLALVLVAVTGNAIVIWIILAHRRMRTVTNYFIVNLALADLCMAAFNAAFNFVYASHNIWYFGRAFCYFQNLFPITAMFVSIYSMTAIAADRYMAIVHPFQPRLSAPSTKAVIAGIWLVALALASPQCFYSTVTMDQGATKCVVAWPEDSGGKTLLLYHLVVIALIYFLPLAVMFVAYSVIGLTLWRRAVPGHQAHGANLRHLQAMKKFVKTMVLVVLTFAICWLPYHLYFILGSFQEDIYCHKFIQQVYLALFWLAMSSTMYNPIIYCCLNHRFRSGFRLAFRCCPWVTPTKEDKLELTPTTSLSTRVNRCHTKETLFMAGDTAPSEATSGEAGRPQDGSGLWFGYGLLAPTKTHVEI
The assay can be described thus: The compound was tested for binding affinity against Tachykinin receptor 2 from human expressed in CHO cells. It is filed as cell-based.

For assay [3], the target named is T4, Substance-K receptor (Cavia porcellus, UniProt Q64077).
T4 sequence (Q64077 whole entry): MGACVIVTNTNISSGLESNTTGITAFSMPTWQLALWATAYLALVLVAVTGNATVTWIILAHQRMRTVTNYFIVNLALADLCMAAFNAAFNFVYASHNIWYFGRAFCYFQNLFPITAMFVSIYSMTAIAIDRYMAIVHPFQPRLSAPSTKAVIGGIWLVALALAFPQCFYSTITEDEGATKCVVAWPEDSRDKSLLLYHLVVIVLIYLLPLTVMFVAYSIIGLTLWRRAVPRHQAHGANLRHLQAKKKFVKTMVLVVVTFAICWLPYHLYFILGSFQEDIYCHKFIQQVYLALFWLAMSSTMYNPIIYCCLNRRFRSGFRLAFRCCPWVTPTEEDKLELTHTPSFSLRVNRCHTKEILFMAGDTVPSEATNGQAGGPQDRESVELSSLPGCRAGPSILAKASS
The assay can be described thus: The compound was tested for binding affinity against Tachykinin receptor 2 from guinea pig trachea.

Bounds are passed on as bounds.

Sequence of Substance-P receptor (P30547 whole entry): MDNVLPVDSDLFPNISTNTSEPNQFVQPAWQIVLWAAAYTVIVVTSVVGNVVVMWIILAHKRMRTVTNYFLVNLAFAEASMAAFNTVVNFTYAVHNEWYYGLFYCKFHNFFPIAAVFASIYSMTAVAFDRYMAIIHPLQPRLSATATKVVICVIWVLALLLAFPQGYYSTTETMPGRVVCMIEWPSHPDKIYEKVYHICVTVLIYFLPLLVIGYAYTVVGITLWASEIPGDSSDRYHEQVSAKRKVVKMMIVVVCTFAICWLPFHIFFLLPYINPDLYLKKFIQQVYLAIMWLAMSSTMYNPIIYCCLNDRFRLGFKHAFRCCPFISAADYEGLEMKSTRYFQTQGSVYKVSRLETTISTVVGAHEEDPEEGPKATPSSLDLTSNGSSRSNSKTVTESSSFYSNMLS

As for `CC(=O)N(Cc1ccccc1)CC1(O)CCN(CCc2c[nH]c3ccc(F)cc23)CC1`, the Ki on Substance-K receptor [1] was 0.00158 µM.

`Cc1ccc(CN2CC3(CCN(CCc4c[nH]c5ccc(F)cc45)CC3)OC2=O)cc1` had an inhibition constant (Ki) at Substance-K receptor [1] of 0.001 µM. This Ki lies about 1.6-fold lower than the previous one.

`N#Cc1ccc(CN2CC3(CCN(CCc4c[nH]c5ccc(F)cc45)CC3)OC2=O)cc1` showed a Ki at Substance-K receptor [1] of 0.1 µM.

`O=C1OC2(CCN(CCc3c[nH]c4ccc(F)cc34)CC2)CN1CCc1ccccc1` had a Ki on Substance-K receptor [1] of 0.01 µM.

Molecule `COC(=O)c1cccc(CN2CC3(CCN(CCc4c[nH]c5ccc(F)cc45)CC3)OC2=O)c1` gave a Ki on Substance-K receptor [1] of 0.0794 µM. Compared with the last molecule, the Ki is about 7.9-fold higher.

In the case of `O=C1OC2(CCN(CCc3c[nH]c4ccc(F)cc34)CC2)CN1Cc1ccncc1`, on Substance-K receptor [1], the Ki is 0.1 µM.

Regarding `O=C1OC2(CCN(CCc3c[nH]c4ccc(F)cc34)CC2)CN1C(=O)c1ccccc1`, the Ki on Substance-K receptor [1] was 0.00251 µM.

Molecule `Fc1ccc2[nH]cc(CCN3CCC4(CC3)CCN(Cc3ccccc3)C4)c2c1` had a Ki on Substance-K receptor [1] of 0.00631 µM.

In turn, `O=C1CC2(CCN(CCc3c[nH]c4ccc(F)cc34)CC2)NN1Cc1ccccc1` had a Ki on Substance-K receptor [1] of 0.01 µM.

Take `Cc1ccc(S(=O)(=O)N2CC3(CCN(CCc4c[nH]c5ccc(F)cc45)CC3)OC2=O)cc1`: the Ki at Substance-K receptor [1] was 0.00501 µM.

On Substance-K receptor [1], `O=C1OC2(CCN(CCc3c[nH]c4ccc(F)cc34)CC2)CN1Cc1ccc(F)cc1` had a Ki of 0.00398 µM.

At Substance-K receptor [1], `O=C1OC2(CCN(CCc3c[nH]c4ccc(F)cc34)CC2)CN1C(c1ccccc1)c1ccccc1` showed a Ki of 0.02 µM.

`O=C1OC2(CCN(CCc3c[nH]c4ccc(F)cc34)CC2)CN1Cc1ccc(F)cc1F` gave a Ki on Substance-K receptor [1] of 0.00631 µM. Against the preceding molecule, the Ki is about 3.2-fold lower.

Molecule `O=C1NC2(CCN(CCc3c[nH]c4ccc(F)cc34)CC2)C(=O)N1Cc1ccccc1` had a Ki at Substance-K receptor [1] of 0.126 µM.

Turning to `COc1ccc(CN2CC3(CCN(CCc4c[nH]c5ccc(F)cc45)CC3)OC2=O)cc1`, the Ki at Substance-K receptor [1] is 0.00398 µM. This Ki lies about 32-fold lower than the previous one.

For `O=C1NC2(CCN(CCc3c[nH]c4ccc(F)cc34)CC2)CN1Cc1ccccc1`, on Substance-K receptor [1], affinity was put at a Ki of 0.00126 µM.

The molecule `CC(c1ccccc1)N1CC2(CCN(CCc3c[nH]c4ccc(F)cc34)CC2)OC1=O` (configuration not stated) had a Ki at Substance-K receptor [1] of 0.02 µM.

At Substance-K receptor [1], `OC1(CNCc2ccccc2)CCN(CCc2c[nH]c3ccc(F)cc23)CC1` had a Ki of 0.1 µM. This Ki is about 5-fold higher than that of the molecule before.

On Substance-K receptor [1], `O=C1OC2(CCN(CCc3c[nH]c4ccc(F)cc34)CC2)CN1Cc1cccc2ccccc12` gave a Ki of 0.00794 µM.

`CN1CC2(CCN(CCc3c[nH]c4ccc(F)cc34)CC2)OC1=O` showed a Ki at Substance-K receptor [1] of 1.58 µM. This Ki lies about 200-fold higher than the previous one.

The molecule `O=C1OC2(CCN(CCc3c[nH]c4ccc(F)cc34)CC2)CN1Cc1ccccn1` showed a Ki on Substance-K receptor [1] of 0.0158 µM.

With `O=C1OC2(CCN(CCc3c[nH]c4ccc(F)cc34)CC2)CN1Cc1cccnc1`, affinity at Substance-K receptor [1] was put at a Ki of 0.2 µM. Against the preceding molecule, the Ki is about 13-fold higher.

`Cc1ccccc1CN1CC2(CCN(CCc3c[nH]c4ccc(F)cc34)CC2)OC1=O` gave a Ki at Substance-K receptor [1] of 0.0126 µM.

With `O=C1OC2(CCN(CCc3c[nH]c4ccc(F)cc34)CC2)CN1Cc1ccc2ccccc2c1`, on Substance-K receptor [1], the Ki was 0.02 µM. This Ki is about 1.6-fold higher than that of the molecule before.

In the case of `O=C1CC2(CCN(CCc3c[nH]c4ccc(F)cc34)CC2)CN1Cc1ccccc1`, on Substance-K receptor [1], the affinity corresponds to a Ki of 0.00126 µM. Against the preceding molecule, the Ki is about 16-fold lower.

`O=C1OC2(CCN(CCc3c[nH]c4ccc(F)cc34)CC2)CN1Cc1cccc(F)c1` showed a Ki at Substance-K receptor [1] of 0.00158 µM.

Take `O=C1OC2(CCN(CCc3c[nH]c4ccc(F)cc34)CC2)CN1Cc1ccccc1`: the Ki at Substance-K receptor [1] is 0.00126 µM; at Substance-P receptor, more than 10 µM; at Neuromedin-K receptor, 79.4 µM; at Substance-K receptor [2] it was 0.00794 µM; on Substance-K receptor [3] it was 0.00251 µM.

The molecule `O=C1OC2(CCN(CCc3c[nH]c4ccc(F)cc34)CC2)CN1Cc1ccc(Cl)cc1` had a Ki on Substance-K receptor [1] of 0.01 µM.
